The source of these data is patent publication US11344510B2, “Arylcyclohexylamine derivatives and their use in the treatment of psychiatric disorders” (Gilgamesh Pharmaceuticals, Inc., priority 2019, dated 2022).

Data set [1] can be described thus: RLM stability (Low Activity). The conditions noted are these: male, Sprague Dawley, rat, liver microsomes, pH 7.4, Condition 1 (Low Activity), 0.50 mg protein/mL. The format is in vitro ADME, Sprague Dawley rats. Summed up: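 Pooled male Sprague Dawley rat liver microsomes (0.50 mg/mL) in PBS pH 7.4 with 1 mM MgCl2 and 1 mM NADPH; compound 1 μM, 1.0% solvent, 37° C. Six time points over 60 min, parent remaining by LC-MS/MS; kel, t1/2 and Clint from linear regression of ln(AUC) versus time.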
On the technique in general: Liver microsomes are a subcellular fraction often used to study metabolism.

Data set [2] can be described thus: MLM stability (Low Activity). The conditions noted are these: male, CD-1, mouse, liver microsomes, pH 7.4, Condition 1 (Low Activity), 0.50 mg protein/mL. The format is in vitro ADME, CD-1 mice. The method, boiled down: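 Pooled male CD-1 mouse liver microsomes (0.50 mg/mL) with 1 μM compound and 1 mM NADPH in 100 mM PBS pH 7.4 with 1 mM MgCl2, 37 °C, six time points over 60 min. Parent remaining by LC-MS/MS; kel, t1/2 and Clint from linear regression of ln(AUC) versus time.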

The target of another data set is T1, SERT (Homo sapiens, UniProt P31645).
T1 construct: expressed in transfected cells; host or cells: HEK293
The data set can be described thus: SERT radioligand binding with [3H]imipramine. As to the method:
(§1) Radioligand Binding. Affinity of the test compounds for SERT, NET, and DAT was determined in radioligand binding experiments with [^3H]imipramine, [^3]nisoxetine, and [^3H]WIN35,428, respectively, by WuXi AppTec (Hong Kong) Limited, under the conditions described in Table 15.

A further data set deals with T2, NET (Homo sapiens, UniProt P23975).
T2 construct: expressed in transfected cells; host or cells: HEK293
The data set can be described thus: NET radioligand binding with [3H]nisoxetine. As for the experimental part: as §1

Data set [3] in a line: Oral bioavailability in mice, Method A. The format is in vivo. Particulars: CD-1 mice; for F: 10 mg/kg; for half-life / Cmax / AUC(0-inf): male, mouse. As for the experimental part:
Animals. Male CD-1 mice were used in these studies Animals were randomly assigned to treatment groups and were fasted for 4 h before dosing.
Drugs. Test compounds were dissolved in normal saline (ketamine) or de-ionized water (other compounds) and administered intravenously (iv) or orally (po) at a dose of 10 mg/kg (calculated based on freebase) and at a volume of 5 mL/kg body weight. Compounds were tested as the racemates (indicated by “rac” nomenclature) or pure enantiomers (indicated by “R” or “S” nomenclature).
Sample Collection and Bioanalysis. Blood samples were collected under 2,2,2-tribromoethanol anesthesia (150 mg/kg, ip) from the orbital sinus at 0.083, 0.25, 0.5, 1, 2, 4, 8 and 24 h (4 animals per time point) into microcontainers containing K2EDTA Immediately after collection of blood, mice were euthanized by cervical dislocation and brain samples were collected at the same time points. All samples were immediately processed, flash-frozen, and stored at −70° C. until subsequent analysis. Plasma samples were separated by centrifugation of whole blood and aliquots (50 μL) were mixed with 200 μL of internal standard solution (400 ng/mL in 1:1 v/v CH3CN:MeOH). After mixing by pipetting and centrifuging for 4 min at 6000 rpm, 0.5 μL of each supernatant was analyzed for drug using a fit-for-purpose liquid chromatography-tandem mass spectrometry (LC-MS/MS) method, with authentic samples of each analyte used for calibration and identification. Brain samples (weight 100 mg±1 mg) were dispersed in 500 μL, of internal standard solution (400 ng/mL in 4:1 v/v MeOH:water) using zirconium oxide beads (115 mg±5 mg) in The Bullet Blender® homogenizer for 30 s at speed 8. After homogenization, the samples were centrifuged for 4 min at 14,000 rpm and 0.5 μL of each supernatant was analyzed for drug using a fit-for-purpose LC-MS/MS method, with authentic samples of each analyte used for calibration and identification.
Data Analysis. The drug concentrations of samples below the lower limit of quantitation (LLOQ) were designated as zero. Pharmacokinetic data analysis was performed using noncompartmental, bolus injection or extravascular input analysis models in WinNonlin 5.2 (PharSight). Data points below LLOQ were presented as missing to improve validity of t112 calculations.

[4] abbreviates: calculated based on brain exposure.
Setting [5] is: brain, 10 mg/kg iv, read-out: t1/2 (iv).
The mark [6] stands for this setting: brain, 10 mg/kg po, read-out: t1/2 (po).
[7] abbreviates: plasma, 10 mg/kg iv, read-out: AUC0-inf (iv) (converted).
[8] abbreviates: plasma, 10 mg/kg iv, read-out: t1/2 (iv).
Where [9] appears, read: plasma, 10 mg/kg po, read-out: AUC0-inf (po) (converted).
Setting [10] is: plasma, 10 mg/kg po, read-out: t1/2 (po).
Where [11] appears, read: plasma, absolute oral bioavailability.

Molecules are shown by their SMILES. Where a name gives a salt, the structure may show the parent alone. Read-outs that look alike come from different tables or passages of the source.

T1 sequence (P31645 whole entry, species assumed): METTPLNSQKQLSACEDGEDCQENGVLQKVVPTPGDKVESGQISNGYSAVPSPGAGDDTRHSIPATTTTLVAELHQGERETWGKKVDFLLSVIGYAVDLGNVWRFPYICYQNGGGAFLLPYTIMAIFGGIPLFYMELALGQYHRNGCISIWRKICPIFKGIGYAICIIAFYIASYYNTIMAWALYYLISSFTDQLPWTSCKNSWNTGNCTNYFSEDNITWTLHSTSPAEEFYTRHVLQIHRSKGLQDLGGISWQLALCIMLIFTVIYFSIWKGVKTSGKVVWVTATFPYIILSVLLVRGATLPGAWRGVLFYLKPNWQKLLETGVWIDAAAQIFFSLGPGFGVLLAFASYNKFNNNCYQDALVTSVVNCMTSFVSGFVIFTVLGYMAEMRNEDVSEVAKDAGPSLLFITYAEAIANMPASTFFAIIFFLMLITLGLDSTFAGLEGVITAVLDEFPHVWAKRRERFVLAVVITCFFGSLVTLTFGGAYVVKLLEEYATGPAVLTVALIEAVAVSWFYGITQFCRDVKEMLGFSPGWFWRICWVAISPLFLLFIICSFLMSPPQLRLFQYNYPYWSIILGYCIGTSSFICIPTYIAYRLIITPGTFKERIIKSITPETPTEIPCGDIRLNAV
T2 sequence (P23975 whole entry, species assumed): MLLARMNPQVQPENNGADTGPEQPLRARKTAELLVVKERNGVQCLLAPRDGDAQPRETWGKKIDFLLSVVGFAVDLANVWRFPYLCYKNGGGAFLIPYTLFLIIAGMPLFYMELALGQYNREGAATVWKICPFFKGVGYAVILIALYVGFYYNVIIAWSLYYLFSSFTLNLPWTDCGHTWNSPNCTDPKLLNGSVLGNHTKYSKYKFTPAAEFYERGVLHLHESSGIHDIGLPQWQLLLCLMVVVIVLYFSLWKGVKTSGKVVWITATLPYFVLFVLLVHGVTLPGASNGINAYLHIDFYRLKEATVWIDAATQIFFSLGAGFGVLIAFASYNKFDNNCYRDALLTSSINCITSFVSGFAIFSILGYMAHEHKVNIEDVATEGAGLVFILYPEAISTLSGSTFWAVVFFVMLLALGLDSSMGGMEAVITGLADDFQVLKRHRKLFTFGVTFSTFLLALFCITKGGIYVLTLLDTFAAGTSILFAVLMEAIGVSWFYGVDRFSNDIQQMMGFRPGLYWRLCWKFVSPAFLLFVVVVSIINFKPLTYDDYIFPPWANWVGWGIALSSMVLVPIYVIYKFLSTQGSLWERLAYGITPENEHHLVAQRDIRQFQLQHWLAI

The microsomal CLint is the rate of metabolic loss divided by the concentration. A high value points to rapid turnover. In data set [1], `Cc1ccccc1[C@]1(N)CCCCC1=O` [Compound 114R, (R)-2-amino-2-(o-tolyl)cyclohexan-1-one] yielded a half-life at 1 μM of 27.6 min and a microsomal CLint at 1 μM of 50.3 µL/min/mg. In data set [2], this molecule showed a half-life at 1 μM of 43.7 min and a microsomal CLint at 1 μM of 31.7 µL/min/mg.

One may read the Ki as the dissociation constant of the complex between target and ligand, obtained from inhibition or displacement. For the molecule `O=C1CCCC[C@]1(c1ccccc1)N1CCC1` [Compound 84R, (R)-2-(azetidin-1-yl)-2-phenyl-cyclohexan-1-one], the Ki on SERT was 0.6 µM; at NET, 77.8 µM.

In the case of `O=C1CCCC[C@@]1(c1ccccc1)N1CCC1` [Compound 84S, (S)-2-(azetidin-1-yl)-2-phenyl-cyclohexan-1-one], the results for the Ki on SERT and at NET were 0.72 µM and 53.8 µM, respectively.

In general, Cmax refers to the highest concentration seen after dosing. In the case of `CNC1(c2ccccc2)CCCCC1=O` (racemic) [Compound 14rac, 2-(methylamino)-2-phenylcyclohexan-1-one hydrochloride], the “AUC0-inf (iv)” value in data set [3] (brain, 10 mg/kg iv) is 457,000 ng*min/g. Also, in data set [3] (brain, 10 mg/kg po), the “AUC0-inf (po)” value is 192,000 ng*min/g. The F in data set [3] (setting [4]) was 42%; in data set [3] (setting [11]) it was 48%. Besides, the half-life in data set [3] (setting [5]) worked out at 28.1 min; in data set [3] (setting [6]), 39.4 min; in data set [3] (setting [8]), 33.7 min; in data set [3] (setting [10]), 42.3 min. For the same molecule, the Cmax in data set [3] (brain, 10 mg/kg po) stood at 3150 ng/g; in data set [3] (plasma, 10 mg/kg po), 930 ng/mL. The AUC(0-inf) in data set [3] (setting [7]) is 1930 ng·h/mL; in data set [3] (setting [9]), 920 ng·h/mL.

Consider `CNC1(c2ccccc2Cl)CCCCC1=O` (racemic) [rac-ketamine, racemic ketamine, reference compound], for which the “AUC0-inf (iv)” value in data set [3] (brain, 10 mg/kg iv) is listed as 97,000 ng*min/g. For the same molecule, the “AUC0-inf (po)” value in data set [3] (brain, 10 mg/kg po) was 6,030 ng*min/g. The F was 6.2% in data set [3] (setting [4]) and 15% in data set [3] (setting [11]).

In data set [1], `Cc1ccccc1[C@@]1(N)CCCCC1=O` [Compound 114S, (S)-2-amino-2-(o-tolyl)cyclohexan-1-one] returned a half-life at 1 μM of 25.4 min and a microsomal CLint at 1 μM of 54.5 µL/min/mg. Also, in data set [2], the half-life at 1 μM was 80.9 min and the microsomal CLint at 1 μM came to 17.1 µL/min/mg.

In data set [2], `N[C@@]1(c2ccccc2)CCCCC1=O` [Compound 11R, (R)-2-amino-2-phenyl-cyclohexan-1-one] had a half-life at 1 μM greater than 145 min and a microsomal CLint at 1 μM of less than 9.6 µL/min/mg.

As for `N[C@]1(c2ccccc2)CCCCC1=O` [Compound 11S, (S)-2-amino-2-phenyl-cyclohexan-1-one], in data set [2], the half-life at 1 μM is greater than 145 min and the microsomal CLint at 1 μM was less than 9.6 µL/min/mg.

`CN[C@]1(c2ccccc2)CCCCC1=O` [Compound 14S, (S)-2-(methylamino)-2-phenylcyclohexan-1-one]: affinity on SERT was put at a Ki of 45.1 µM. For the same molecule, the “AUC0-inf (iv)” value in data set [3] (brain, 10 mg/kg iv) is 507,000 ng*min/g. In addition, in data set [3] (brain, 10 mg/kg po), the “AUC0-inf (po)” value is reported as 166,000 ng*min/g. The F in data set [3] (setting [4]) is reported as 33%; in data set [3] (setting [11]), 45.5%. Besides, the half-life in data set [3] (setting [5]) stood at 127 min; in data set [3] (setting [6]), 104 min; in data set [3] (setting [8]), 142 min; in data set [3] (setting [10]) it was 176 min. Besides, the Cmax in data set [3] (brain, 10 mg/kg po) amounted to 3480 ng/g; in data set [3] (plasma, 10 mg/kg po), 951 ng/mL. Moreover, the AUC(0-inf) was 2180 ng·h/mL in data set [3] (setting [7]) and 993 ng·h/mL in data set [3] (setting [9]).

Turning to `O=C1CCCCC1(c1ccccc1)N1CCCC1` (racemic) [Compound 27rac, 2-phenyl-2-(pyrrolidin-1-yl)cyclohexan-1-one], the half-life at 1 μM in data set [1] was found to be 35.4 min. In data set [1], this molecule displayed a microsomal CLint at 1 μM of 39.1 µL/min/mg. In addition, the results for the Ki on SERT and on NET were 0.11 µM and 11.5 µM, respectively.

`CN[C@@]1(c2ccccc2)CCCCC1=O` [Compound 14R, (R)-2-(methylamino)-2-phenylcyclohexan-1-one] displayed an inhibition constant (Ki) on SERT of 40 µM. For the same molecule, the “AUC0-inf (iv)” value in data set [3] (brain, 10 mg/kg iv) is listed as 548,000 ng*min/g. Also, the “AUC0-inf (po)” value in data set [3] (brain, 10 mg/kg po) was 192,000 ng*min/g. The F in data set [3] (setting [4]) was 35%; in data set [3] (setting [11]), 40%. Further, the half-life in data set [3] (setting [5]) was found to be 716 min; in data set [3] (setting [6]), 44.1 min; in data set [3] (setting [8]) it was 70.5 min; in data set [3] (setting [10]), 55.3 min. Moreover, the Cmax came to 3640 ng/g in data set [3] (brain, 10 mg/kg po) and 1700 ng/mL in data set [3] (plasma, 10 mg/kg po). The AUC(0-inf) in data set [3] (setting [7]) was 3520 ng·h/mL; in data set [3] (setting [9]), 1410 ng·h/mL.
